Laboratory results reported in patent publication US11287433B2, “Methods for in vitro investigating mitochondrial replication dysfunction in a biological sample, kits and uses thereof, therapeutic methods against progeroid-like syndromes or symptoms and screening method for identifying particular protease inhibitor(s) and/or nitroso-redox stress scavenger …” (INSTITUT PASTEUR, priority 2014, dated 2022).
Peptide text beside a SMILES is read from it. * marks the point of attachment. Cbz = O=C(OCc1ccccc1)*

B1: KSTI: Kunitz soybean trypsin inhibitor, a natural serine protease inhibitor (protein)
chain: DFVLDNEGNPLENGGTYYILSDITAFGGIRAAPTGNERCPLTVVQSRNELDKGIGTIISSPYRIRFIAEGHPLSLKFDSFAVIMLCVGIPTEWSVVEDLPEGPAVKIGENKDAMDGWFRLERVSDDEFNNYKLVFCPQQAEDDKCGDIGISIDHDDGTRRLVVSKNKPLVVQFQKLDKESL

What was measured:
[1] = test system: adult primary fibroblasts IMR-90 and BJ; test: Cell survival of primary cells in culture at longer incubation times; assay type: cell-based
Procedure: As KSTI (serine protease inhibitor) and MnTBAP (ROS/RNS scavenger) rescue the CS phenotype by 24 h treatment, the inventors assessed cell survival in culture at longer incubation times with either drug. They used doses of the drugs as those affecting CS cells: 100 μg/ml of KSTI and 100 μM MnTBAP on adult primary fibroblasts IMR-90 and BJ (from ATCC repository). […] Additional experiments are ongoing to test the survival at longer incubation times and lower doses of the drug.

[2] = test system: reactive oxygen species (ROS); test: ROS levels by DCFHDA (DCF) fluorescence in fibroblasts; assay type: cell-based, human; settings: control and UVSS fibroblasts; 24 h
From the text: The inventors assessed the relative levels of oxidative stress using the fluorescent probe dichlorofluorescein diacetate (DCFHDA), which prevalently detects reactive oxygen species (ROS)^29. They reported that whereas UV^SS cells display moderate (25%) increase of signal compared to controls, all CS cells are characterized by higher levels (1.6 to 2-fold) of oxidative stress (FIG. 8a), in agreement with a previous finding^30.
(§1) The inventors quantified fluorescence intensities on cells as summarized in Table 1 before and after treatment with MnTBAP (purchased from Millipore) of DCF and of DHR123 per cell (FIGS. 9(a) and (b)), as well as fluorescence intensities of HTRA2 (FIG. 9(c)), HTRA3 (FIG. 9(d)), POLG1 (FIG. 9(e)) per cell.
(§2) Manganase(III)tetrakis(4-benzoic acid)porphyrin (MNTBAP) is a synthetic metalloporphyrin which mimics superoxide dismutase and scavenges ROS and peroxynitrite^32.

peroxynitrite = test: Peroxynitrite levels by DHR123 fluorescence in fibroblasts; assay type: cell-based, human; settings: all control and patient cells; 24 h
From the text: High levels of ROS react with nitric oxide (NO), thereby quenching NO and promoting the formation of peroxynitrite (ONOO^−), which is a powerful oxidant and nitration agent^31.
as §1, §2

HTRA2 = HTRA2 fluorescence intensity per cell after MnTBAP; assay type: cell-based, human
Procedure: (§3) Cells plated on slides were fixed with 2% PFA and permeabilized with 0.5% Triton X-100. The slides were incubated in blocking buffer (BSA 5% in PBS) for 1 h then with the primary antibody (POLγ and HTRA3 purchased from SantaCruz Biotechnology, or as available from any other provider) for 1 h at room temperature. A second, fluorescent antibody (goat anti-mouse and goat anti-rabbit Alexa® Fluor 488, Alexa® Fluor 555, conjugated secondary antibodies from Invitrogen or by any other provider), was incubated for 1-2 h at room temperature, and DNA was stained with 10 μg/ml Hoechst.
(§4) Image analysis was carried out using Perkin-Elmer Ultraview RS Nipkow-spinning disk confocal microscope. Three-dimensional reconstruction of all the z-stacks was achieved using the 3D-volume rendering of IMARIS software (Bitplane). A regular fluorescence microscope can also be used, including for fluorescence quantification, although in this last case it will quantify one section of the cell only and not the entire volume; this quantification may be sufficient for comparative studies (normal versus patient cells). Confocal acquisition (even in the absence of spinning disk) in 3D allows quantification of the entire volume, and differences among samples are therefore more robust. […]

HTRA3 = HTRA3 fluorescence intensity per cell after MnTBAP; assay type: cell-based, human
Procedure: as §3
(§5) Image analysis was carried out using Perkin-Elmer Ultraview RS Nipkow-spinning disk confocal microscope. Three-dimensional reconstruction of all the z-stacks was achieved using the 3D-volume rendering of IMARIS software (Bitplane). A regular fluorescence microscope can also be used, including for fluorescence quantification, although in this last case it will quantify one section of the cell only and not the entire volume; this quantification may be sufficient for comparative studies (normal versus patient cells). Confocal acquisition (even in the absence of spinning disk) in 3D allows quantification of the entire volume, and differences among samples are therefore more robust.
as §1

POLG1 = POLG1 fluorescence intensity per cell after MnTBAP; assay type: cell-based, human; settings: normal fibroblasts
Procedure: as §3, §4

mtDNA content = test: qPCR of mtDNA content after MnTBAP; assay type: cell-based, human
ATP synthesis = test: ATP tests (glycolysis/OXPHOS fraction and total ATP per cell) after MnTBAP; assay type: cell-based, human
POLG1 levels [3] = test: POLG1 immunofluorescence in patient fibroblasts after treatment with protease inhibitors; assay type: cell-based, human; settings: 5 hours
Procedure: as §3, §5
The inventors treated fibroblasts from healthy individuals, from UV^SS and from Cockayne syndrome of type I and II (the last being the more severe), with protease inhibitors MG132 (5 μM) and KSTI (100 μg/ml) for 5 hours and then tested for POLG1 levels.

POLG1 levels [4] = test: POLG1 levels in CSB-silenced HeLa cells after protease inhibitors; assay type: cell-based, human
[5] = CS type I and type II fibroblasts 359, 797 and 816, MG132 5 μM or KSTI 100 μg/ml
[6] = CS type I fibroblasts 539 and 548, MG132 5 μM or KSTI 100 μg/ml
[7] = fibroblasts of healthy individuals and of UVSS, MG132 5 μM or KSTI 100 μg/ml

Row | Molecule | cell survival (cell number and cell shape) ([1]; 100 μM MnTBAP, continuous treatment by 3 days) | levels of ROS, measured by DCFHDA [2] | levels of peroxynitrite, measured by DHR123 (peroxynitrite) | HTRA2 reduction (HTRA2; UVSS and all CS cells, compared with control cells) | levels of serine protease HTRA2 (HTRA2; control cells) | levels of HTRA3 (HTRA3; CS cells) | levels of HTRA3 (HTRA3; UVSS cells) | levels of HTRA3 (HTRA3; control cells) | levels of POLG1 (POLG1) | mtDNA content (mtDNA content; control fibroblasts) | mtDNA content (mtDNA content; patient cells) | glycolytic shift / fraction of ATP produced by mitochondria (ATP synthesis; CS cells, 24 h treatment) | total ATP levels (ATP synthesis; UVSS and CS cells) | POLG1 immunofluorescence level (POLG1 levels [3]; [5]) | POLG1 immunofluorescence level (POLG1 levels [3]; [6]) | POLG1 immunofluorescence level (POLG1 levels [3]; CS type II fibroblasts 177, MG132 5 μM) | POLG1 immunofluorescence level (POLG1 levels [3]; [7]) | POLG1 levels (POLG1 levels [4]) | cell survival (cell number and cell shape) ([1]; 100 μg/ml KSTI, continuous treatment by 6 days)
1 | O=C(O)c1ccc(/C2=C3\C=CC(=N3)/C(c3ccc(C(=O)O)cc3)=c3/cc/c4[n]3[Mn]([Cl])[n]3c2ccc3/C(c2ccc(C(=O)O)cc2)=C2/C=CC(=N2)\C=4c2ccc(C(=O)O)cc2)cc1 [MnTBAP, Manganese (III) tetrakis (4-benzoic acid) porphyrin chloride] | did not show effect on cell survival | decreased by two thirds | greatly reduced | dramatically higher | reduce by one half | restored control levels of HTRA3 | did reduce | increased the levels of HTRA3 | increased levels of POLG1 | does not change the mtDNA content | becomes close to the value of controls | attenuated | remain relatively high | – | – | – | – | – | –
2 | CC(C)C[C@@H](C=O)NC(=O)[C@H](CC(C)C)NC(=O)[C@H](CC(C)C)NC(=O)OCc1ccccc1 [MG132, benzyl N-[(2S)-4-methyl-1-[[(2S)-4-methyl-1-[[(2S)-4-methyl-1-oxopentan-2-yl]amino]-1-oxopentan-2-yl]amino]-1-oxopentan-2-yl]carbamate] (Cbz-Leu-Leu-Leu-aldehyde) | – | – | – | – | – | – | – | – | – | – | – | – | – | POLG1 levels exceeded those of untreated healthy individuals | Significant modifications in two CS type I fibroblasts (539 and 548) were not observed | increased to levels of healthy individual | increased levels of POLG1 immunofluorescence | restored normal POLG1 levels | –
3 | B1 | – | – | – | – | – | – | – | – | – | – | – | – | – | POLG1 levels exceeded those of untreated healthy individuals | Significant modifications in two CS type I fibroblasts (539 and 548) were not observed | – | increased levels of POLG1 immunofluorescence | restored normal POLG1 levels | did not show effect on cell survival
